Laboratory results reported in patent US20080312200A1, “Medicament Comprising A Hormone Combination” (Grunenthal GmbH, priority 2006, published 2008).

What was measured:
GABAA receptors = assay: Influence on the binding of [3H]muscimol to GABAA receptors (rat cerebral cortex membranes); conditions: 5 nM [3H]muscimol
Protocol: The following determinations of the influence of allopregnanolone, 3-α-OH-CMA or 3-β-OH-CMA on the binding of muscimol to GABAA receptors (rat) are based on the experimental methods published by Snodgrass, S. R. (Nature, 1979, vol. 273, p. 392-394). The corresponding disclosure is hereby introduced as a reference and is part of the disclosure of the present application.
Membrane preparations are produced from rat cerebral cortex material. The reference substance used is 5 nM of [^3H] muscimol; 10 μM of muscimol are used for determining nonspecific binding. The incubation period of the substances ([^3H]muscimol, allopregnanolone) on the receptor amounts in each case to 10 minutes at a temperature of approx. 4° C. The stock solution (5×10^−2 M) of allopregnanolone is in each case prediluted 1:10 in 75% strength DMSO and then further diluted 1:5 in 25% strength DMSO. The final concentration of allopregnanolone in the test is in each case 1×10^−10 M, 1×10^−9 M, 1×10^−8 M, 1×10^−7 M, 1×10^−6 M and 1×10^−5 M. After the above-stated incubation period of the substances, the incubation batches are filtered using standard methods and washed and the radioactivity of the filters is determined with a scintillation counter. Such standard methods are known to a person skilled in the art. The experiments are in each case carried out on duplicate batches.
The influence of 3-α-OH-CMA or 3-β-OH-CMA on the binding of muscimol to GABAA receptors (rat) is determined in a manner similar to the above-described method. 3-α-OH-CMA or 3-β-OH-CMA is used instead of allopregnanolone.

[1] = target: T1, human progesterone receptor (Homo sapiens, UniProt P06401); assay: Affinity for the human progesterone receptor ([3H]R 5020 displacement, MCF-7 cytosol); format: binding; conditions: for IC50: 2 nM [3H]R 5020, MCF-7 cytosol, 20 hours, approx. 4° C.; for Ki: Cheng-Prusoff from IC50
T1 construct: The cytosolic fractions of MCF-7 cells, which contain the human progesterone receptor, are used; endogenous in cells; host or cells: MCF-7 cells (cytosolic fraction)
T1 sequence (P06401 1-933): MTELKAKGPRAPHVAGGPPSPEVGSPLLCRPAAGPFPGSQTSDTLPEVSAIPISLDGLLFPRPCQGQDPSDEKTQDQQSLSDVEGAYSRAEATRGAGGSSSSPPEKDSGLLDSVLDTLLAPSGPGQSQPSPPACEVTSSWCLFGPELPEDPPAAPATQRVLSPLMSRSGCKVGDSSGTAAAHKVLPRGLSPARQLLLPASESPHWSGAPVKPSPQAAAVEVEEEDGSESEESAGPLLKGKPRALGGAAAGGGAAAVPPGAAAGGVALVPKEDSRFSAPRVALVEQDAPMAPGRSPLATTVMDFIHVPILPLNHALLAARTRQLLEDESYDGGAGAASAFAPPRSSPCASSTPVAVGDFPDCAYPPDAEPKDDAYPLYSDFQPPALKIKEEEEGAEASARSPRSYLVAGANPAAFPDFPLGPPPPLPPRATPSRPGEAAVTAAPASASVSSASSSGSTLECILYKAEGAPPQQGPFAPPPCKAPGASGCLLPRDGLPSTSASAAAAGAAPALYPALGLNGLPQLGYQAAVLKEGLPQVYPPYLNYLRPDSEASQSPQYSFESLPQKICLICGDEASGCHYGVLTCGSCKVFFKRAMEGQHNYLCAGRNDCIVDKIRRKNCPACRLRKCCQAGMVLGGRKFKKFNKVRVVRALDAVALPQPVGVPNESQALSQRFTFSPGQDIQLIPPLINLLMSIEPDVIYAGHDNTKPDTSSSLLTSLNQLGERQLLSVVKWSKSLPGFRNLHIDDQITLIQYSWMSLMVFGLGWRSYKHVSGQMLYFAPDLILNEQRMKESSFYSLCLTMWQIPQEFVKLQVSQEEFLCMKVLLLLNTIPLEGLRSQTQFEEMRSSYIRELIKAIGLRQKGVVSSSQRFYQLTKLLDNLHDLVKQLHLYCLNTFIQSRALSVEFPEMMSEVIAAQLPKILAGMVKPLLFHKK
Protocol: (§1) The following determination of the affinity of 3-α-OH-CMA or 3-β-OH-CMA for the human progesterone receptor is based on the experimental methods published by Eckert et al. (Cancer Research, 1982, vol. 42, pp. 139-144). The corresponding disclosure is hereby introduced as a reference and is part of the disclosure of the present application.
The cytosolic fractions of MCF-7 cells, which contain the human progesterone receptor, are used. The reference substance used is 2 nM of [^3H] R 5020; 1 μM of R 5020 is used for determining nonspecific binding. The incubation period of the substances ([^3H] R 5020, 3-α-OH-CMA or 3-β-OH-CMA) on the receptor amounts in each case to 20 hours at a temperature of approx. 4° C. Stock solutions (5×10^−2 M) of 3-α-OH-CMA or 3-β-OH-CMA are in each case prediluted 1:10 in 75% strength DMSO and then further diluted 1:5 in 25% strength DMSO. The final concentrations of 3-α-OH-CMA or 3-β-OH-CMA in the test are 3×10^−10 M, 3×10^−9 M, 1×10^−8 M, 3×10^−8 M, 1×10^−7 M, 3×10^−7 M, 1×10^−6 M and 1×10^−5 M. After the above-stated incubation period of the substances, the incubation batches are filtered using standard methods and washed and the radioactivity of the filters is determined with a scintillation counter. Such standard methods are known to a person skilled in the art. The experiments are in each case carried out on duplicate batches.
The corresponding IC50 values are calculated by nonlinear regression analysis of the displacement curves using the Hill curve fitting formula. A person skilled in the art is aware of such a calculation procedure.
The corresponding Ki values (inhibition constants) are determined using the Cheng-Prusoff equation (Ki=IC50/(1+(L/KD)), where L denotes the concentration of the radioligand in the test and KD the affinity of the radioligand for the receptor).

human androgen receptor = target: T2, human androgen receptor (Homo sapiens, UniProt P10275, T878A); assay: Affinity for the human androgen receptor ([3H]methyltrienolone displacement, LNCaP cytosol); format: binding
T2 construct: The cytosolic fractions of LNCaP cells, which contain the human androgen receptor, are used; endogenous in cells; host or cells: LNCaP cells (cytosolic fraction)
T2 sequence (P10275 1-920 T878A): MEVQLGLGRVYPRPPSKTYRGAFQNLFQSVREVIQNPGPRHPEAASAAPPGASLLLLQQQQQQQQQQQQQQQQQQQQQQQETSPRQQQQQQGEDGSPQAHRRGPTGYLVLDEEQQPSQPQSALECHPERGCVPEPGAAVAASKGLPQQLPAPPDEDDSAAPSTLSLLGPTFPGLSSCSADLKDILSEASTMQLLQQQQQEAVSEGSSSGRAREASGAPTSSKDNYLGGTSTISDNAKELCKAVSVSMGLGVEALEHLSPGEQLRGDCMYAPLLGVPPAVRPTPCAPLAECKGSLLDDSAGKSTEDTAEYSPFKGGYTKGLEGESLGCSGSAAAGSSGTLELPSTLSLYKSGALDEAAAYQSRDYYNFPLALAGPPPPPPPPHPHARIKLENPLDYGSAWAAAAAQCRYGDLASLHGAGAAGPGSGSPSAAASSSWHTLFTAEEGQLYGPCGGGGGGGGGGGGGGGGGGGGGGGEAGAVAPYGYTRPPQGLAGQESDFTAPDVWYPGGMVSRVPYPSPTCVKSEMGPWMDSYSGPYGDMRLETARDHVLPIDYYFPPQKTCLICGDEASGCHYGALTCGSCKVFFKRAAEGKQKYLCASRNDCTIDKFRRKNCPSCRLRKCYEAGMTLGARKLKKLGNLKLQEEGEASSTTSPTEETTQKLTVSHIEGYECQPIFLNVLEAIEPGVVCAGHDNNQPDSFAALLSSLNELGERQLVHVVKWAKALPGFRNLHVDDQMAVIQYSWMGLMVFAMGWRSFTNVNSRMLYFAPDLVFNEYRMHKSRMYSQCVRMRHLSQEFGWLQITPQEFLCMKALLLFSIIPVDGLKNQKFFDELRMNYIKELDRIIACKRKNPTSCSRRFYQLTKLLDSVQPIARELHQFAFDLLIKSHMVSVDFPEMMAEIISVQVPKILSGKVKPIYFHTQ
Protocol: as §1, with “androgen” for “progesterone”, “Zava” for “Eckert”, “(Endocrinology, 1979,” for “(Cancer Research, 1982,”, “104,” for “42,”, “1007-1012).” for “139-144).”
The cytosolic fractions of LNCaP cells, which contain the human androgen receptor, are used. The reference substance used is 0.5 nM of [^3H]methyltrienolone; 1 μM of mibolerone is used for determining nonspecific binding. The incubation period of the substances ([^3H]methyltrienolone, 3-α-OH-CMA or 3-β-OH-CMA) on the receptor amounts in each case to 24 hours at a temperature of approx. 4° C. The stock solutions, the dilution series of 3-α-OH-CMA or 3-β-OH-CMA, the washing steps, the determination of radioactivity, and the methods for calculating the particular IC50 and Ki values match the experimental protocol described in point 2).

| Compound | increase of binding of radioactively labelled muscimol (GABAA receptors; 0.001 μM test substance) [%] | IC50 [1] [nM] | Ki [1] [nM] | IC50 (human androgen receptor) [nM] | Ki (human androgen receptor) [nM] | increase of binding of radioactively labelled muscimol (GABAA receptors; 0.1 μM test substance) [%] | increase of binding of radioactively labelled muscimol (GABAA receptors; 1 μM test substance, 10 min, approx. 4° C.) [%] |
| --- | --- | --- | --- | --- | --- | --- | --- |
| CC(=O)O[C@]1(C(C)=O)CC[C@H]2[C@@H]3C=C(Cl)C4=C[C@H](O)CC[C@]4(C)[C@H]3CC[C@@]21C [3-α-OH-CMA, 3α-hydroxy-6-chloro-17α-acetoxy-4,6-pregnadien-20-one] | 12 | 39 | 13 | 100 | 83 |  |  |
| CC(=O)O[C@]1(C(C)=O)CC[C@H]2[C@@H]3C=C(Cl)C4=C[C@@H](O)CC[C@]4(C)[C@H]3CC[C@@]21C [3-β-OH-CMA, 3β-hydroxy-6-chloro-17α-acetoxy-4,6-pregnadien-20-one] |  | 18 | 6 | 25 | 20 | 31 |  |
| CC(=O)[C@H]1CC[C@H]2[C@@H]3CC[C@H]4C[C@H](O)CC[C@]4(C)[C@H]3CC[C@]12C [allopregnanolone, reference compound] |  |  |  |  |  |  | 38 |
